From patent US20240024273A1, “TOPICAL ADMINISTRATION OF 2-(DIETHYLAMINO)ETHYL 2-(4-ISOBUTYLPHENYL)PROPRIONATE FOR TREATMENT OF DISEASES” (TECHFIELDS PHARMA CO., LTD., priority 2020, published 2024)

System: Subjects with Osteoarthritis of the Knee
Assay: Second Phase 2 study: safety (treatment-emergent adverse events)
Type: in vivo, human
Conditions: BID
Text: Safety assessments will be performed at each visit and will include assessment of AEs, vital signs (blood pressure, pulse rate, and oral temperature), clinical laboratories, physical examination, skin irritation, and electrocardiograms (ECGs) as indicated in the study flow chart, Table 47.
Safety assessments will include AEs, vital signs (blood pressures, pulse rate, and oral temperature), clinical laboratories, physical examination, skin irritation, and ECGs at various time points during the study as indicated in the study flow chart.
Adverse events of interest include: local skin reactions around the treated knee(s), upper stomach pain, GI bleeding, serious cardiovascular side effects (e.g., thrombotic events, myocardial infarction, or stroke), jaundice, elevated liver function tests, and nausea.
Safety analyses will be conducted on the SAS. Safety parameters will be listed and summarized using standard descriptive statistics, as appropriate. No formal statistical analyses are planned.

[1] = moderate adverse events, 4.375 mg/knee, N = 71
[2] = moderate adverse events, 8.75 mg/knee, N = 70
[3] = possibly, probably, or definitely related to study drug, 4.375 mg/knee, N = 71
[4] = possibly, probably, or definitely related to study drug, 8.75 mg/knee, N = 70
[5] = possibly, probably, or definitely related to study drug, 17.5 mg/knee, N = 70

CCN(CC)CCOC(=O)C(C)c1ccc(CC(C)C)cc1 (stereo not shown) [2-(diethylamino)ethyl 2-(4-isobutylphenyl)propionate]
Gastroenteritis: subjects with adverse events [1]: 1
Gastroesophageal reflux disease: number of adverse events [1]: 1
Gastroesophageal reflux disease: percentage of subjects with adverse events [1]: 1.4%
Gastroesophageal reflux disease: subjects with adverse events [1]: 1
Total Adverse Events: number of adverse events [1]: 3
Total Adverse Events: percentage of subjects with adverse events [1]: 4.2%
Total Adverse Events: subjects with adverse events [1]: 3
Upper Respiratory Tract Infection: number of adverse events [1]: 1
Upper Respiratory Tract Infection: percentage of subjects with adverse events [1]: 1.4%
Upper Respiratory Tract Infection: subjects with adverse events [1]: 1
Total Adverse Events: number of adverse events [2]: 4
Total Adverse Events: percentage of subjects with adverse events [2]: 5.7%
Total Adverse Events: subjects with adverse events [2]: 4
Upper Respiratory Tract Infection: number of adverse events [2]: 4
Upper Respiratory Tract Infection: percentage of subjects with adverse events [2]: 1.4%
Upper Respiratory Tract Infection: subjects with adverse events [2]: 4
Abdominal Pain Upper: number of adverse events [3]: 1
Abdominal Pain Upper: percentage of subjects with adverse events [3]: 1.4%
Abdominal Pain Upper: subjects with adverse events [3]: 1
Administration Site Conditions: number of adverse events [3]: 1
Administration Site Conditions: percentage of subjects with adverse events [3]: 1.4%
Administration Site Conditions: subjects with adverse events [3]: 1
Alanine Aminotransferase Increased: number of adverse events [3]: 1
Alanine Aminotransferase Increased: percentage of subjects with adverse events [3]: 1.4%
Alanine Aminotransferase Increased: subjects with adverse events [3]: 1
Application Site Irritation: number of adverse events [3]: 1
Application Site Irritation: percentage of subjects with adverse events [3]: 1.4%
Application Site Irritation: subjects with adverse events [3]: 1
Aspartate Aminotransferase Increased: number of adverse events [3]: 3
Aspartate Aminotransferase Increased: percentage of subjects with adverse events [3]: 4.2%
Aspartate Aminotransferase Increased: subjects with adverse events [3]: 3
Gamma-Glutamyltransferase Increased: number of adverse events [3]: 2
Gamma-Glutamyltransferase Increased: percentage of subjects with adverse events [3]: 2.8%
Gamma-Glutamyltransferase Increased: subjects with adverse events [3]: 2
Headache: number of adverse events [3]: 1
Headache: percentage of subjects with adverse events [3]: 1.4%
Headache: subjects with adverse events [3]: 1
Hypertriglyceridemia: number of adverse events [3]: 6
Hypertriglyceridemia: percentage of subjects with adverse events [3]: 7.0%
Hypertriglyceridemia: subjects with adverse events [3]: 5
Positive Fecal Occult Blood Test: number of adverse events [3]: 6
Positive Fecal Occult Blood Test: percentage of subjects with adverse events [3]: 7.0%
Positive Fecal Occult Blood Test: subjects with adverse events [3]: 5
Throat Irritation: number of adverse events [3]: 2
Throat Irritation: percentage of subjects with adverse events [3]: 2.8%
Throat Irritation: subjects with adverse events [3]: 2
Total Adverse Events: number of adverse events [3]: 26
Total Adverse Events: percentage of subjects with adverse events [3]: 33.8%
Total Adverse Events: subjects with adverse events [3]: 24
White Blood Cell Count Decreased: number of adverse events [3]: 2
White Blood Cell Count Decreased: percentage of subjects with adverse events [3]: 2.8%
White Blood Cell Count Decreased: subjects with adverse events [3]: 2
Abdominal Discomfort: number of adverse events [4]: 4
Abdominal Discomfort: percentage of subjects with adverse events [4]: 4.3%
Abdominal Discomfort: subjects with adverse events [4]: 3
Abdominal Pain Upper: number of adverse events [4]: 1
Abdominal Pain Upper: percentage of subjects with adverse events [4]: 1.4%
Abdominal Pain Upper: subjects with adverse events [4]: 1
Administration Site Conditions: number of adverse events [4]: 1
Administration Site Conditions: percentage of subjects with adverse events [4]: 1.4%
Administration Site Conditions: subjects with adverse events [4]: 1
Alanine Aminotransferase Increased: number of adverse events [4]: 1
Alanine Aminotransferase Increased: percentage of subjects with adverse events [4]: 1.4%
Alanine Aminotransferase Increased: subjects with adverse events [4]: 1
Application Site Irritation: number of adverse events [4]: 1
Application Site Irritation: percentage of subjects with adverse events [4]: 1.4%
Application Site Irritation: subjects with adverse events [4]: 1
Diarrhoea: number of adverse events [4]: 2
Diarrhoea: percentage of subjects with adverse events [4]: 2.9%
Diarrhoea: subjects with adverse events [4]: 2
Dizziness: number of adverse events [4]: 2
Dizziness: percentage of subjects with adverse events [4]: 2.9%
Dizziness: subjects with adverse events [4]: 2
Headache: number of adverse events [4]: 6
Headache: percentage of subjects with adverse events [4]: 5.7%
Headache: subjects with adverse events [4]: 4
Hypertriglyceridemia: number of adverse events [4]: 3
Hypertriglyceridemia: percentage of subjects with adverse events [4]: 4.3%
Hypertriglyceridemia: subjects with adverse events [4]: 3
Positive Fecal Occult Blood Test: number of adverse events [4]: 6
Positive Fecal Occult Blood Test: percentage of subjects with adverse events [4]: 7.1%
Positive Fecal Occult Blood Test: subjects with adverse events [4]: 5
Throat Irritation: number of adverse events [4]: 1
Throat Irritation: percentage of subjects with adverse events [4]: 1.4%
Throat Irritation: subjects with adverse events [4]: 1
Total Adverse Events: number of adverse events [4]: 34
Total Adverse Events: percentage of subjects with adverse events [4]: 41.4%
Total Adverse Events: subjects with adverse events [4]: 29
White Blood Cell Count Decreased: number of adverse events [4]: 2
White Blood Cell Count Decreased: percentage of subjects with adverse events [4]: 2.9%
White Blood Cell Count Decreased: subjects with adverse events [4]: 2
Abdominal Discomfort: number of adverse events [5]: 1
Abdominal Discomfort: percentage of subjects with adverse events [5]: 1.4%
Abdominal Discomfort: subjects with adverse events [5]: 1
Abdominal Pain Upper: number of adverse events [5]: 2
Abdominal Pain Upper: percentage of subjects with adverse events [5]: 1.4%
Abdominal Pain Upper: subjects with adverse events [5]: 1
Administration Site Conditions: number of adverse events [5]: 4
Administration Site Conditions: percentage of subjects with adverse events [5]: 5.7%
Administration Site Conditions: subjects with adverse events [5]: 4
Application Site Irritation: number of adverse events [5]: 1
Application Site Irritation: percentage of subjects with adverse events [5]: 1.4%
Application Site Irritation: subjects with adverse events [5]: 1
Application Site Rash: number of adverse events [5]: 3
Application Site Rash: percentage of subjects with adverse events [5]: 4.3%
Application Site Rash: subjects with adverse events [5]: 3
Aspartate Aminotransferase Increased: number of adverse events [5]: 1
Aspartate Aminotransferase Increased: percentage of subjects with adverse events [5]: 1.4%
Aspartate Aminotransferase Increased: subjects with adverse events [5]: 1
Dizziness: number of adverse events [5]: 1
Dizziness: percentage of subjects with adverse events [5]: 1.4%
Dizziness: subjects with adverse events [5]: 1
Headache: number of adverse events [5]: 1
Headache: percentage of subjects with adverse events [5]: 1.4%
Headache: subjects with adverse events [5]: 1
Hypertriglyceridemia: number of adverse events [5]: 6
Hypertriglyceridemia: percentage of subjects with adverse events [5]: 8.6%
Hypertriglyceridemia: subjects with adverse events [5]: 6
Positive Fecal Occult Blood Test: number of adverse events [5]: 5
Positive Fecal Occult Blood Test: percentage of subjects with adverse events [5]: 7.1%
Positive Fecal Occult Blood Test: subjects with adverse events [5]: 5
Total Adverse Events: number of adverse events [5]: 25
Total Adverse Events: percentage of subjects with adverse events [5]: 35.7%
Total Adverse Events: subjects with adverse events [5]: 25
